This is an account of results in patent US12661353B2, “SPT5 inhibitors and uses thereof” (Yeda Research and Development Co. Ltd., priority 2020, dated 2026).

Experiment [1] addresses T1, Spt5-Pol II interaction (NGN and KOW 1&2 of Spt5, coiled-coil domain of Rpb1) (Homo sapiens, UniProt P24928).
T1 construct: the region spanning NGN and KOW 1&2 of Spt5 and the coiled-coil (CC) domain of Rpb1; the coiled-coil (CC) domain of Rpb1, the large subunit of Pol II, were fused to N-RL and C-RL, respectively; made in house; host or cells: E. coli (pRSFDuet double expression plasmid); bacterial cell lysate used unpurified
In words: Split-Renilla luciferase (RL) complementation assay of Spt5-Pol II interaction. The format is binding. The text has this: Plasmid construction—The mammalian expression plasmids RSV-AC/AN Renilla luciferase (pRL-AC/AN), encoding the N-terminal amino acid residues 1-229 or the C-terminus 230-311 of the Renilla luciferase (RL) were previously described in Ashkenazi et al., 2016; and Ashkenazi et al., 2017. The split-Renilla luciferase fusion plasmids were constructed by two-step PCR using the pRL-AC or pRL-AN as backbones and plasmids encoding the region spanning NGN and KOW 1&2 of human Spt5 (SEQ ID NOs: 1-3) or the coiled-coil (CC) domain of human Rpb1 (SEQ ID NOs: 4-6), respectively, as insert sources. For bacterial expression of the split-RL fusion proteins the double expression plasmid pRSFDuet was used. All constructs were verified by sequencing.
High-throughput drug screening (HTS)—About 100,000 compounds [from MEGxp library: Pure natural compounds from plants (see Table 1 hereinbelow) were screened for their effect on Spt5-Pol II interaction (a schematic representation of the assay is shown in FIG. 1B). […] Compounds that diminished the luminescence activity by >30% were subjected for an additional screen with a bacterial lysate expressing recombinant full-length RL (diluted 1: 500 in phosphate buffer) that served as a control for false-positive compounds that inhibit the RL enzymatic activity itself (Ashkenazi et al., 2017). […]

In experiment [2] the test system is pro-inflammatory genes A20, CCL20, IL6, IL8, CXCL2, JUNB and IEX1. In words: mRNA levels of pro-inflammatory genes under TNFα-induced conditions, HeLa, RT-qPCR. It is filed as cell-based, human. To be noted: HeLa cells, SPI 1 hour then TNFα 1 hour. As for the experimental part:
Cell culture—HEK293T, HeLa, MCF7, Jurkat and mouse embryonic fibroblasts (MEFs) cells were grown and maintained in Dulbecco's modified Eagle's medium supplemented with 10% fetal calf serum (Gibco) and 1% penicillin-streptomycin. To avoid NF-κB activity, HeLa cells were kept from reaching confluence and re-plated no more than 10 times following initial thawing. To induce NF-κB activity, cells were treated with […] recombinant human TNF-α (Peprotech) for the indicated times. STHdh Q111 and STHdh Q7 striatal cell lines (Coriell Institute for Medical Research) were grown in Dulbecco's modified Eagle's medium supplemented with 10% fetal calf serum (Gibco), 1% penicillin-streptomycin and 0.4 mg/ml G418 at 33° C. The cells were re-plated no more than 5-6 times, as recommended.
RNA analysis—Total RNA was extracted using Tri-reagent (Bio-Lab Chemicals) and Direct-Zol™ RNA MiniPrep kit (Zymo Research). Following, cDNA was synthesized from […] of total RNA using a High-Capacity cDNA Reverse Transcription Kit (ABI, Thermo Fisher Scientific). cDNA samples were analyzed by quantitative PCR (qPCR) in a ViiA 7 Real-Time PCR System using Fast qPCRBIO SYBR Green Mix (PCR Biosystems).
In the next step, the effect of the identified SPIs on expression of the selected genes following NF-κB activation was analyzed. Specifically, Hela cells were pre-incubated with DMSO or SPI (50 μM or less) for 1 hour followed by treatment with TNFα for an additional 1 hour.
(Quantitative PCR measures a nucleic acid by following its amplification.)

The test system of experiment [3] is HeLa cells. The experiment in a line: Cells viability assay (CellTiter-Glo), HeLa. The format is cell-based, human. As to conditions: increasing concentrations, 48 h. As for the experimental part:
Cells viability assay—_HeLa cells were plated in an opaque-walled 96 well plate (50,000 cells per well) and treated with increasing concentrations of the tested SPI compounds (e.g., SPI-21 or SPI-18) for 48 hours. After equilibrating the plate and its contents at room temperature for 30 minutes, […] (1:1) of CellTiter-Glo® Reagent (G7571, Promega) was added to each well and shook for 2 minutes to induce cell lysis. Following 10 minutes incubation at room temperature, the luminescent signal was detected using the Cytation 5 instrument.
Spt5 was reported to be essential for cell growth and survival in mammalian cells (Komori et al., 2009).

T1 sequence (P24928 8-370 limits assumed): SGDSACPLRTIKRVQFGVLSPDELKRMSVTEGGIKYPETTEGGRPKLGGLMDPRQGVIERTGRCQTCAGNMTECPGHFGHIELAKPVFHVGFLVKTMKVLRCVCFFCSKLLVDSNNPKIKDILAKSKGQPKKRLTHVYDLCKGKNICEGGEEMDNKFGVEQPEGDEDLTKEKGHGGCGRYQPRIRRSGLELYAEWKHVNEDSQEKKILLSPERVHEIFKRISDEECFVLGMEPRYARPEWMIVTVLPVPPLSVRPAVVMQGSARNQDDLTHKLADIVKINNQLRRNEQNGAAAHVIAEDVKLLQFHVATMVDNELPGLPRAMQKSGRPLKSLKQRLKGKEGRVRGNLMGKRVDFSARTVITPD

As for `Nc1ccccc1SC(CC(=O)c1cccs1)c1cccs1` (stereo not drawn) [SPI-18], the midpoint of inhibition in experiment [1], the IC50, lay at 33 µM. Besides, the “Down-regulating transcription of pro-inflammatory genes under TNFα induced conditions (i.e. inhibiting transcription elongation of pro-inflammatory genes induced by Spt5)” value in experiment [2] was “+ (+ >50%)”. Further, in experiment [3], the cellular viability entry is recorded as “dramatically diminish cellular viability in a dose-dependent manner”.

With `COc1ccc(C=CC(=O)c2cc(O)ccc2O)cc1` [SPI-21], in experiment [1], the IC50 (usually the concentration that gives 50% inhibition) amounted to 25 µM. In addition, in experiment [2], the “Down-regulating transcription of pro-inflammatory genes under TNFα induced conditions (i.e. inhibiting transcription elongation of pro-inflammatory genes induced by Spt5)” value is on record as “+++ (+++ represent >80% inhibition)”. In experiment [3], the cellular viability result is “dramatically diminish cellular viability in a dose-dependent manner”.
